Consider 3 molecules from US20020062490A1, “Hypertension” (priority 2000, published 2002).

“And” between values parts separate entries of the source, which are not always exact repeats. Equal entries are not always repeated.

Test [1] in a line: Blood pressure responses in anesthetized mice to infused GPCR agonists. The test is classed as in vivo. The note with it: for decrease from resting MAP: 0.156 μg/kg isoproterenol, n=3; for change from resting diastolic pressure: 0.625 μg/kg isoproterenol; for diastolic pressure response: 10 μg/kg isoproterenol; for MAP response (increase over resting MAP): 8 μg/kg phenylephrine; for increase over resting MAP: 1 μg/kg angiotensin II. As to the method: In order to begin to understand the mechanisms involved in the GRK2 overexpression-induced hypertension and the receptors that are desensitized, blood pressure responses were measured in anesthetized mice following angiotensin II (FIG. 5A), phenylephrine (FIG. 5B) or isoproterenol (FIG. 5C) infusion. The response to 1 μg/kg angiotensin II was attenuated (NLC 91+12%, n=9 versus BK25 43+8% increase over resting MAP, n=4, p=0.02), as were responses to 8 μg/kg phenylephrine (NLC: 44±11% versus 4±5%, n=4, p=0.04). MAP responses to isoproterenol were not different in GRK2 overexpressing mice as compared with NLC. However, isoproterenol has a significant effect on heart rate that could affect MAP. Therefore, diastolic pressure was examined as a rough estimate of peripheral resistance.
In vivo Physiology: Mice were anesthetized with ketamine (100 mg/kg body weight) and xylazine (5 mg/kg body weight). Subsequently, a flexible plastic catheter (flame-stretched PE50 tubing) was placed in the left carotid artery to monitor arterial pressure and tunneled subcutaneously to exit at the nape of the neck. The catheter was then flushed with 100 μL of heparinized phosphate-buffered saline (PBS) (30 U/mL), sealed and attached to the skin between the scapulae. Twenty-four hours later, blood pressure measurements are recorded from awake, unrestrained mice. Intra-arterial blood pressure is recorded continuously through the carotid catheter using PowerLab (ADInstruments, Mountainview, Calif.) data acquisition and software. In both anesthetized and awake animals, systolic (SBP) and diastolic blood pressure (DBP), and heart rate were measured. Mean arterial pressure (MAP) was calculated as DBP+⅓(SBP- DBP). The recordings from animals in each experimental group were then integrated and averaged. To analyze acute blood pressure responses, a second catheter was placed in the jugular vein to infuse agonists. Immediately following an equilibration period, mice received a bolus injection at 2-5 min intervals.

The test system of test [2] is aortic VSM cells. The test can be described thus: MAPK (ERK1/2) activity after βAR stimulation in aorta VSM cells. The test is classed as cell-based, mice. Particulars: 10^−5M isoproterenol, 5 minutes. As to the method: MAPK Activity: To study MAPK activity, cells were stimulated with isoproterenol at the described concentration for 5 minutes. Cells were then harvested and homogenized in ice-cold RIPA buffer with 1 mM sodium orthovanadate (Iaccarino et al, Proc. Natl. Acad. Sci. USA 96:3945-3950 (1999b)). MAPK activity as assessed by phosphorylated protein levels was performed by activity assays as previously described (Iaccarino et al, Proc. Natl. Acad. Sci. USA 96:3945-3950 (1999b)). Protein immunoblotting for the activated phosphorylated forms of ERK1/2 and JNK1/3 (New England Biolabs) was normalized to total MAPK levels using antibodies specific to total ERK1/2 and JNK1 (Santa Cruz Biotechnologies, California).
As a second assay to measure βAR mediated signaling in VSM cells from GRK2 transgenic and NLC mice, we investigated MAPK activity after βAR stimulation. Two MAPKs were studied, extracellular-regulated kinase (ERK1/2 or p42/p44 MAPKs) and c-jun kinase (JNK). FIG. 7C is a representative autoradiograph of the ability of immunoprecipitated ERK1/2 or JNK1/3 to phosphorylates their in vitro substrates myelin basic protein (MBP) or GST-c-jun, respectively, after the addition of different doses of isoproterenol to aortic VSM cells from NLC and SM22α-GRK2-25 mice. […] This was also the case for the activity of JNK1/3 and its ability to phosphorylate GST-c-jun (FIG. 7C). […]

Test [3] has as its system aortic VSM cells. The test can be described thus: Intracellular cAMP accumulation (adenylyl cyclase activity) in cultured aortic VSM cells. Particulars: aortic VSM cells from SM22α-GRK2-25 mice, compared with NLC cells. The test is classed as cell-based. As for the experimental part: Cell Culture: Primary cultures of VSM from thoracic aortas and vena cava were obtained and cultured as described (Chen et al, J. Biol. Chem. 270:30980-30988 (1995)). To determine adenylyl cyclase activity, cultured cells were grown to four days post-confluence. Cells were then labeled overnight in 3.0 μCi/mL [^3H]adenine (DuPont/NEN) in medium 199 and then preincubated in medium 199 with 10 mM Hepes and 1 mM 3-isobutyl-1-methylxanthine (IBMX) for 30 min. Cells were then stimulated with the appropriate concentration of isoproterenol or […] for 15 minutes. Following incubation, cAMP was determined by anion exchange chromatography and a percent incorporation of the total [^3H] uptake was calculated. To determine if enhanced expression and activity of GRK2 seen in cultured VSM cells from SM22α-GRK2 mice could exert an effect on signaling, intracellular cAMP accumulation in cultured aortic VSM cells in response to the βAR agonist isoproterenol was examined.
For orientation: Changes in cAMP serve as a functional read-out for many G protein-coupled receptors.

The test system of test [4] is thoracic aorta ring segments. The test can be described thus: Responses of isolated thoracic aorta ring segments to GPCR agonists. Also noted: species or system mice. As to the method:
In Vitro Physiology: Aorta were dissected and cut into 2.5 mm rings. Rings were then placed in a 37° C. chamber (Kent Scientific) containing Krebs-Hensileit buffer and bubbled with 95% O2/5% CO2. Two stainless steel wires were placed through each ring and one wire is attached to a fixed end. The other was attached to a force transducer and contraction is measured by force displacement (PowerLab, ADInstruments, Mountainview, Calif.). Responses to various agonists were tested in the presence and absence (mechanically scraped using a thin wire or chemical inhibition of nitric oxide synthase using 100 μM L-NAME) of endothelial cells. For isoproterenol responses, pretension was established at 60% of the maximum phenylephrine response (3×10^−7M PE).
Pharmacology: To analyze the effect of VSM GRK2 overexpression independent of autonomic influences on the peripheral vasculature, responses of isolated thoracic aorta ring segments to the GPCR agonists isoproterenol (βAR) and phenylephrine ([…]) were examined. Endothelial cell presence was first verified by relaxation responses to 10^−5M acetylcholine. […] Accordingly, pretension for the βAR studies was established using 3×10^−7M phenylephrine, which corresponded to 60% maximum phenylephrine stimulation in both NLC and transgenic mice. […]

Take `CC(C)NCC(O)c1ccc(O)c(O)c1` (stereo not shown) [isoproterenol]: the “decrease from resting MAP” value was −30±2.8 mmHg in test [1] (anesthetized NLC mice) and −4.7±3.2 mmHg in test [1] (anesthetized SM22α-GRK2 mice). The “change from resting diastolic pressure” value in test [1] (anesthetized BK25 mice, n=4) is −11±3%; in test [1] (anesthetized NLC mice, n=9) it was −39±8%. Also, the diastolic pressure response in test [1] (anesthetized BK25 mice, n=4) was −11±3%; in test [1] (anesthetized WT mice, n=9), −39±8%. Further, the “MAP responses, GRK2 overexpressing mice compared with NLC” value in test [1] (anesthetized mice, cumulative doses of isoproterenol) was “not different”. In addition, the “induction of phosphorylation status of ERK1/2” value in the test on aortic VSM cells [2] (NLC VSM cells) was “robust increase”. Besides, the “induction of phosphorylation status of ERK1/2 (activation)” value with aortic VSM cells [2] (SM22α-GRK2-25 VSM cells) is given as “virtually abolished”. In the test on aortic VSM cells [3], the cAMP generation entry was “minimal increase”.

Regarding `CNC[C@H](O)c1cccc(O)c1` [phenylephrine], the “MAP response (increase over resting MAP)” value is 4±5% in test [1] (anesthetized GRK2 overexpressing (BK25) mice, n=4) and 44±11% in test [1] (anesthetized NLC (WT) mice). For the same molecule, the “fraction of maximum phenylephrine stimulation (pretension)” value in test [4] (3×10^−7M phenylephrine, aorta rings of both NLC and transgenic mice) is 60%. Also, in test [4] (cumulative dose response), the “constriction of aorta rings, NLC compared with SM22α-GRK2-25 mice” value was “similar”.

As for “angiotensin II [GPCR agonist infused to raise blood pressure]”, the “increase over resting MAP” value is 43+8% and 43±8% in test [1] (anesthetized BK25 (GRK2 overexpressing) mice, n=4); 91+12% and 91±12% in test [1] (anesthetized NLC (WT) mice, n=9).
